Test results from patent publication US20120129843A1, “PYRIDYL-THIAZOLYL INHIBITORS OF PRO-MATRIX METALLOPROTEINASE ACTIVATION” (priority 2010, published 2012).
Where a name gives a salt, the structure may show the parent alone.

Legend:
[1] = molecular target: T1, proMMP9(20-445;ΔFnII) (SEQ ID NO:6) (Homo sapiens, UniProt P14780, DEL216-390); assay: ThermoFluor binding assay with proMMP9(20-445;ΔFnII)
T1 construct: start methionine (N); made in house; host or cells: E. coli BL21(DE3) RIL
T1 sequence (P14780 with tags, fused parts or gaps DEL216-390): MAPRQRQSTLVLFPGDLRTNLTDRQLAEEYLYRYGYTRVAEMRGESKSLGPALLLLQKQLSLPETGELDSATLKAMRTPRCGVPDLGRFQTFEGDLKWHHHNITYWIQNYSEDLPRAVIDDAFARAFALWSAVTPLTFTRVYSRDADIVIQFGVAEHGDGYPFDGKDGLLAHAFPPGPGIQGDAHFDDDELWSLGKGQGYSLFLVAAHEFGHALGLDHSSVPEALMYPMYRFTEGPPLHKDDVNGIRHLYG
Procedure: The ThermoFluor® (TF) assay is a 384-well plate-based binding assay that measures thermal stability of proteins (Biomol Screen 2001, 6, 429-40; Biochemistry 2005, 44, 5258-66). The experiments were carried out using instruments available from Johnson & Johnson Pharmaceutical Research & Development, LLC. TF dye used in all experiments was […] (1,8-ANS) (Invitrogen: A-47).
Compounds were arranged in a pre-dispensed plate (Greiner Bio-one: 781280), wherein compounds were serially diluted in 100% DMSO across 11 columns within a series. Columns 12 and 24 were used as DMSO reference and contained no compound. For multiple compound concentration-response experiments, the compound aliquots ([…]) were robotically predispensed directly into black 384-well polypropylene PCR microplates (Abgene: TF-0384/k) using a Cartesian Hummingbird liquid handler (DigiLab, Holliston, Mass.). Following compound dispense, protein and dye solutions were added to achieve the final assay volume of 3 μL. The assay solutions were overlayed with 1 μL of silicone oil (Fluka, type DC 200: 85411) to prevent evaporation.
Assay plates were robotically loaded onto a thermostatically controlled PCR-type thermal block and then heated from 40 to 90° C. at a ramp-rate of 1° C./min for all experiments. Fluorescence was measured by continuous illumination with UV light (Hamamatsu LC6) supplied via fiber optics and filtered through a band-pass filter (380-400 nm; >60D cutoff). Fluorescence emission of the entire 384-well plate was detected by measuring light intensity using a CCD camera (Sensys, Roper Scientific) filtered to detect 500±25 nm, resulting in simultaneous and independent readings of all 384 wells. A single image with 20-sec exposure time was collected at each temperature, and the sum of the pixel intensity in a given area of the assay plate was recorded vs temperature and fit to standard equations to yield the Tm (J Biomol Screen 2001, 6, 429-40).
Thermodynamic parameters necessary for fitting compound binding for each proMMP were estimated by differential scanning calorimetry (DSC) and from ThermoFluor® data. The heat capacity of unfolding for each protein was estimated from the molecular weight and from ThermoFluor® dosing data.
ThermoFluor® with proMMP9(20-445;ΔFnII) (SEQ ID NO:6)
The protein sample preparations included a desalting buffer exchange step via a PD-10 gravity column (GE Healthcare). The desalting buffer exchange was performed prior to diluting the protein to the final assay concentration of 2.8 μM proMMP9(20-445;ΔFnII) (SEQ ID NO:6). The concentration of proMMP9(20-445;ΔFnII) (SEQ ID NO:6) was determined spectrophotometrically based on a calculated extinction coefficient of ε280=39880 M^−1cm^−1, a calculated molecular weight of 28.2 kDa, and calculated pI of 5.5. ThermoFluor® reference conditions were define as follows: 80 μg/mL (2.8 μM) proMMP9(20-445;ΔFnII) (SEQ ID NO:6), 50 μM 1,8-ANS, pH 7.0 Buffer (50 mM HEPES pH 7.0, 100 mM NaCl, 0.001% Tween-20, 2.5 mM MgCl2, 300 μM CaCl2). The thermodynamic parameters for proMMP9(20-445;ΔFnII) (SEQ ID NO:6) are as follows: Tm (° C.)=72 (+/−0.1), ΔUH(Tm) (cal mol^−1)=160000(+/−5000), ΔUS(Tm) (cal mol^−1 K^−1)=434, ΔUCp (cal mol^−1 K^−1)=2400.

[2] = molecular target: T2, full-length proMMP9(1-707) (SEQ ID NO:1), activation by catalytic MMP3 (Homo sapiens, UniProt P14780, R574P); assay: proMMP9/MMP3 P126 Activation Assay; type: biochemical
T2 construct: made in house; host or cells: HEK293 (proMMP9, secreted); E. coli (MMP3)
T2 sequence (P14780 20-707 R574P): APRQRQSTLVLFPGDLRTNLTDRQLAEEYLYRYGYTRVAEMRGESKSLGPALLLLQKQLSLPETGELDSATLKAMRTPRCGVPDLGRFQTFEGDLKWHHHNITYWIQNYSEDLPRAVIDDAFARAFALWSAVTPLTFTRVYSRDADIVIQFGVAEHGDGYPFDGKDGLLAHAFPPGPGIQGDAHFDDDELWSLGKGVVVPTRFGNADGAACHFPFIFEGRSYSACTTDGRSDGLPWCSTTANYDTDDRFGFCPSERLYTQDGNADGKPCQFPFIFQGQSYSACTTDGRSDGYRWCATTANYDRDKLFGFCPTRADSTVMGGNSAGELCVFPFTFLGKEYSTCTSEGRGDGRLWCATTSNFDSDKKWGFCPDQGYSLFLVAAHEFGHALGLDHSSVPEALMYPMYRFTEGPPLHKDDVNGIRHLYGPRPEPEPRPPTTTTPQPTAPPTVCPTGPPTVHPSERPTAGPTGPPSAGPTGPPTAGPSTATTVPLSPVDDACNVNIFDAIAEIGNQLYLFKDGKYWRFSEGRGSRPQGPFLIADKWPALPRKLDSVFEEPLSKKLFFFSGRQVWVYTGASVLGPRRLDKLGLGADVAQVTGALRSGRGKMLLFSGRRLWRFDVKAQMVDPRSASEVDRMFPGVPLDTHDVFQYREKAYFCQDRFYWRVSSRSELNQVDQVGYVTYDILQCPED
Procedure: proMMP9/MMP3 P126 Activation Assay
The reaction volume was 50 μL. […] Reactivity of residual MMP3 towards P-126 substrate was minimal under these conditions.

SMILES | Kd [1] | IC50 [2]
CC(C)Oc1ccc(S(N)(=O)=O)cc1Nc1nc(-c2ccc(N3CCCCC3)nc2)cs1 [Example 76, 4-Isopropoxy-3-((4-(6-(piperidin-1-yl)pyridin-3-yl)thiazol-2-yl)amino)benzenesulfonamide.TFA] | 240 nM | > 20000 nM
CCN1CCC(NC(=O)c2ccc(-c3csc(Nc4cc(S(N)(=O)=O)ccc4OC(C)C)n3)cn2)CC1 [Example 57, 5-[2-(2-Isopropoxy-5-sulfamoyl-phenylamino)-thiazol-4-yl]-pyridine-2-carboxylic acid (1-ethyl-piperidin-4-yl)-amide.TFA] | 110 nM | 240 nM
CC(C)Oc1ccc(S(N)(=O)=O)cc1Nc1nc(-c2ccc(N3C[C@@H](C)N[C@@H](C)C3)nc2)cs1 [Example 68, 3-((4-(6-(cis-3,5-Dimethylpiperazin-1-yl)pyridin-3-yl)thiazol-2-yl)amino)-4-isopropoxybenzenesulfonamide.TFA] | 71 nM | 130 nM
CC(C)Oc1ccc(S(N)(=O)=O)cc1Nc1nc(-c2ccc(N3CCNC(C(N)=O)C3)nc2)cs1 (centres unmarked) [Example 73, 4-(5-(2-((2-Isopropoxy-5-sulfamoylphenyl)amino)thiazol-4-yl)pyridin-2-yl)piperazine-2-carboxamide.TFA] | 120 nM | 210 nM
CC(C)Oc1ccc(S(N)(=O)=O)cc1Nc1nc(-c2ccc(C3CCNCC3)nc2)cs1 [Example 81, 4-Isopropoxy-3-((4-(6-(piperidin-4-yl)pyridin-3-yl)thiazol-2-yl)amino)benzenesulfonamide.TFA] | 130 nM | 130 nM
COCCN(C)c1ccc(-c2csc(Nc3cc(S(N)(=O)=O)ccc3OC(C)C)n2)cn1 [Example 74, 4-Isopropoxy-3-((4-(6-((2-methoxyethyl)(methyl)amino)pyridin-3-yl)thiazol-2-yl)amino)benzenesulfonamide.TFA] | 170 nM | 160 nM
CC(C)Oc1ccc(S(N)(=O)=O)cc1Nc1nc(-c2ccc(N3CCN(S(C)(=O)=O)CC3)nc2)cs1 [Example 83, 4-Isopropoxy-3-((4-(6-(4-(methylsulfonyl)piperazin-1-yl)pyridin-3-yl)thiazol-2-yl)amino)benzenesulfonamide.TFA] | 310 nM | 140 nM
COCCNC(=O)c1ccc(-c2csc(Nc3cc(S(N)(=O)=O)ccc3OC(C)C)n2)cn1 [Example 90, 5-(2-((2-Isopropoxy-5-sulfamoylphenyl)amino)thiazol-4-yl)-N-(2-methoxyethyl)picolinamide.TFA] | 970 nM | 1700 nM
CC1CCN(c2ccc(-c3csc(Nc4cc(S(N)(=O)=O)ccc4OC(C)C)n3)cn2)CC1 [Example 77, 4-Isopropoxy-3-((4-(6-(4-methylpiperidin-1-yl)pyridin-3-yl)thiazol-2-yl)amino)benzenesulfonamide.TFA] | 1900 nM | > 20000 nM
CC(C)Oc1ccc(S(N)(=O)=O)cc1Nc1nc(-c2ccc(C(=O)NC3CCCN(C)C3)nc2)cs1 (centres unmarked) [Example 89, 5-(2-((2-Isopropoxy-5-sulfamoylphenyl)amino)thiazol-4-yl)-N-(1-methylpiperidin-3-yl)picolinamide.TFA] | 360 nM | 350 nM
CC(C)Oc1ccc(S(N)(=O)=O)cc1Nc1nc(-c2ccc(C(=O)NCC3CCOCC3)nc2)cs1 [Example 91, 5-(2-((2-Isopropoxy-5-sulfamoylphenyl)amino)thiazol-4-yl)-N-((tetrahydro-2H-pyran-4-yl)methyl)picolinamide.TFA] | 2400 nM | 640 nM
CC(C)Oc1ccc(S(N)(=O)=O)cc1Nc1nc(-c2ccc(N3CCNC(C(F)(F)F)C3)nc2)cs1 (centres unmarked) [Example 80, 4-Isopropoxy-3-((4-(6-(3-(trifluoromethyl)piperazin-1-yl)pyridin-3-yl)thiazol-2-yl)amino)benzenesulfonamide.TFA] | 150 nM | 360 nM
CC(C)Oc1ccc(S(N)(=O)=O)cc1Nc1nc(-c2ccc(C3=CCNCC3)nc2)cs1 [Example 72, 4-Isopropoxy-3-((4-(1′,2′,3′,6′-tetrahydro-[2,4′-bipyridin]-5-yl)thiazol-2-yl)amino)benzenesulfonamide.TFA] | 110 nM | 140 nM
CC(C)Oc1ccc(S(N)(=O)=O)cc1Nc1nc(-c2ccc(N3CCn4ccnc4C3)nc2)cs1 [Example 82, 3-((4-(6-(5,6-Dihydroimidazo[1,2-a]pyrazin-7(8H)-yl)pyridin-3-yl)thiazol-2-yl)amino)-4-isopropoxybenzenesulfonamide.TFA] | 99 nM | 370 nM
CC(C)Oc1ccc(S(N)(=O)=O)cc1Nc1nc(-c2ccc(C(=O)NCC3CCN(C)CC3)nc2)cs1 [Example 95, 5-(2-((2-Isopropoxy-5-sulfamoylphenyl)amino)thiazol-4-yl)-N-((1-methylpiperidin-4-yl)methyl)picolinamide.TFA] |  | 310 nM
CC1CN(c2ccc(-c3csc(Nc4cc(S(N)(=O)=O)ccc4OC(C)C)n3)cn2)CC(C)N1 (centres unmarked) [Example 67, 3-((4-(6-(3,5-Dimethylpiperazin-1-yl)pyridin-3-yl)thiazol-2-yl)amino)-4-isopropoxybenzenesulfonamide.TFA] | 71 nM | 130 nM
CC(C)Oc1ccc(S(N)(=O)=O)cc1Nc1nc(-c2ccc(C(=O)NC3CCOCC3)nc2)cs1 [Example 96, 5-(2-((2-Isopropoxy-5-sulfamoylphenyl)amino)thiazol-4-yl)-N-(tetrahydro-2H-pyran-4-yl)picolinamide.TFA] | 1900 nM | 590 nM
CC(C)Oc1ccc(S(N)(=O)=O)cc1Nc1nc(-c2ccc(C(=O)NC3CCN(C(C)C)CC3)nc2)cs1 [Example 88, 5-(2-((2-Isopropoxy-5-sulfamoylphenyl)amino)thiazol-4-yl)-N-(1-isopropylpiperidin-4-yl)picolinamide.TFA] | 260 nM | 330 nM
CC(C)Oc1ccc(S(N)(=O)=O)cc1Nc1nc(-c2ccc(N(C)CCO)nc2)cs1 [Example 75, 3-((4-(6-((2-Hydroxyethyl)(methyl)amino)pyridin-3-yl)thiazol-2-yl)amino)-4-isopropoxybenzenesulfonamide.TFA] | 280 nM | 110 nM
CC(=O)N1CCN(c2ccc(-c3csc(Nc4cc(S(N)(=O)=O)ccc4OC(C)C)n3)cn2)CC1 [Example 65, 3-((4-(6-(4-Acetylpiperazin-1-yl)pyridin-3-yl)thiazol-2-yl)amino)-4-isopropoxybenzenesulfonamide.TFA] | 69 nM | 210 nM
CC(C)Oc1ccc(S(N)(=O)=O)cc1Nc1nc(-c2ccc(N3CCN(C4CC4)CC3)nc2)cs1 [Example 61, 3-((4-(6-(4-Cyclopropylpiperazin-1-yl)pyridin-3-yl)thiazol-2-yl)amino)-4-isopropoxybenzenesulfonamide.TFA] |  | 300 nM
CC(C)Oc1ccc(S(N)(=O)=O)cc1Nc1nc(-c2ccnc(Cl)c2)cs1 [Intermediate 9, 3-[4-(2-Chloro-pyridin-4-yl)-thiazol-2-ylamino]-4-isopropoxy-benzenesulfonamide.TFA] | 96000 nM | 
